# Assay results from US9315458B2, “Nitrogen-containing heterocyclic compound” (Takeda Pharmaceutical Company Limited, priority 2014, dated 2016).
# Biological target: T1, human M1 receptor (hCHRM1) (Homo sapiens, UniProt P11229)
# T1 construct: expressed in transfected cells
# T1 sequence (P11229 1-460): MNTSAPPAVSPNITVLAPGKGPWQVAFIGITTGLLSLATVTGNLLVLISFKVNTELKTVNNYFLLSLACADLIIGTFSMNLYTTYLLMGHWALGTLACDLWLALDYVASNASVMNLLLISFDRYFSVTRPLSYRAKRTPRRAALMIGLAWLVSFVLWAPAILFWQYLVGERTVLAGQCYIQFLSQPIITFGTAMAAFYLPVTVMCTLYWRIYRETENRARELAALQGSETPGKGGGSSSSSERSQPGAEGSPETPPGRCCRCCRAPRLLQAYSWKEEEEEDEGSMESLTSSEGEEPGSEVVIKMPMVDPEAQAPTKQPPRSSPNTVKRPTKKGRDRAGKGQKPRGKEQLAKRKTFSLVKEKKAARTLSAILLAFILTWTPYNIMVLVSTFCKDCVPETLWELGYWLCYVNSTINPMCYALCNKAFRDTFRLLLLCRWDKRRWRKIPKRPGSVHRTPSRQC
# Test: Measurement of M1 receptor positive allosteric modulator (M1PAM) activity, calcium fluorescence (FLIPRtetra) with acetylcholine at EC20
# Assay type: cell-based
# Settings: for activity (%) at 10 μM: 10 μM test compound, 100% = acetylcholine 1 μM, 0% = DMSO, acetylcholine at EC20; for EC50: inflection point of concentration-dependent curve, CHO-K1 cells expressing hCHRM1, acetylcholine at EC20 (final 0.6-0.8 nM), read-out: IP value
# Method: The activity of a test compound in the presence of acetylcholine at EC20 concentration (final concentration 0.6-0.8 nM), which affords an action corresponding to about 20% of the maximum activity, was measured as PAM activity. The method is as follows. CHO-K1 cells stably expressing a human M1 receptor (hCHRM1) were plated on a 384-well black clear bottom plate (BD Falcon) at 5,000 cells/well, and cultured in an incubator at 37° C., 5% CO2 for 1 day. The medium in the cell plate was removed, and assay buffer A (Recording medium (DOJINDO LABORATORIES), 0.1% BSA (Wako Pure Chemical Industries, Ltd.), 2.5 μg/mL Fluo-4 AM (DOJINDO LABORATORIES), 0.08% Pluronic F127 (DOJINDO LABORATORIES), 1.25 mM probenecid (DOJINDO LABORATORIES)) containing a calcium indicator was added at 30 μL/well. The cells were left standing in the incubator at 37° C., 5% CO2 for 30 min, and further left standing at room temperature for 30 min. A test compound prepared by diluting with assay buffer B (HBSS (Invitrogen), 20 mM HEPES (Invitrogen), 0.1% BSA) containing 2.4-3.2 nM acetylcholine was added at 10 μL/well, and the fluorescence was measured by FLIPRtetra (Molecular Devices) for 1 min every 1 second. With the definition that the amount of change in the fluorescence on addition of acetylcholine (final concentration 1 μM) is 100% and that on addition of DMSO instead of a test compound is 0%, the activity (%) of the test compound was calculated, and the inflection point in the concentration-dependent curve of the test compound was calculated as IP values.
activity (%) at 10 μM [%],EC50 [nM],Compound
111,750,"Cn1cc(-c2ccc(Cc3ccc4c(c3)C(=O)N([C@H]3CCCC[C@@H]3O)C4)cn2)cn1 (racemic) [Example 1, rac-2-(trans-2-hydroxycyclohexyl)-6-((6-(1-methyl-1H-pyrazol-4-yl)pyridin-3-yl)methyl)isoindolin-1-one]"
109,86,"O=C1c2cc(Cc3ccc(-n4cccn4)cc3)c(Cl)cc2CN1[C@H]1CCCC[C@@H]1O (racemic) [Example 2, rac-5-chloro-2-(trans-2-hydroxycyclohexyl)-6-(4-(1H-pyrazol-1-yl)benzyl)isoindolin-1-one]"
102,8.2,"Cc1cc2c(cc1Cc1ccc(-c3cn(C)nc3C)nc1)C(=O)N([C@H]1CCCC[C@@H]1O)C2 (racemic) [Example 5, rac-6-((6-(1,3-dimethyl-1H-pyrazol-4-yl)pyridin-3-yl)methyl)-2-(trans-2-hydroxycyclohexyl)-5-methylisoindolin-1-one]"
101,5.3,"Cc1cc(-c2ccc(Cc3cc4c(cc3C)CN([C@H]3CCCC[C@@H]3O)C4=O)cn2)ccn1 (racemic) [Example 6, rac-2-(trans-2-hydroxycyclohexyl)-5-methyl-6-((2′-methyl-2,4′-bipyridin-5-yl)methyl)isoindolin-1-one]"
106,66,"O=C1c2cc(Cc3ccc(-n4cccn4)cc3)c(C(F)(F)F)c(Cl)c2CN1[C@H]1CCCC[C@@H]1O (racemic) [Example 10, rac-4-chloro-2-(trans-2-hydroxycyclohexyl)-6-(4-(1H-pyrazol-1-yl)benzyl)-5-(trifluoromethyl)isoindolin-1-one]"
102,9.5,"Cc1c(Cc2ccc(-n3cccn3)cc2)cc2c(c1C)CN([C@H]1CCCC[C@@H]1O)C2=O (racemic) [Example 29, rac-2-(trans-2-hydroxycyclohexyl)-4,5-dimethyl-6-(4-(1H-pyrazol-1-yl)benzyl)isoindolin-1-one]"
95,37,"Cc1cc2c(cc1Cc1ccc(-n3cccn3)cc1)C(=O)N([C@H]1CCC[C@@H]1O)C2 (racemic) [Example 33, rac-2-(trans-2-hydroxycyclopentyl)-5-methyl-6-(4-(1H-pyrazol-1-yl)benzyl)isoindolin-1-one]"
97,30,"Cc1cc(-c2ccc(Cc3cc4c(cc3C)CN([C@H]3CCC[C@@H]3O)C4=O)cn2)ccn1 (racemic) [Example 41, rac-2-(trans-2-hydroxycyclopentyl)-5-methyl-6-((2′-methyl-2,4′-bipyridin-5-yl)methyl)isoindolin-1-one]"
110,98,"Cc1cc2c(cc1Cc1ccc(-c3ccn(C)n3)nc1)C(=O)N([C@H]1CCC[C@@H]1O)C2 (racemic) [Example 43, rac-2-(trans-2-hydroxycyclopentyl)-5-methyl-6-((6-(1-methyl-1H-pyrazol-3-yl)pyridin-3-yl)methyl)isoindolin-1-one]"
99,3,"Cc1cc2c(cc1Cc1ccc(-c3cn(C)nn3)cc1)C(=O)N([C@H]1CCCC[C@@H]1O)C2 (racemic) [Example 47, rac-2-(trans-2-hydroxycyclohexyl)-5-methyl-6-(4-(1-methyl-1H-1,2,3-triazol-4-yl)benzyl)isoindolin-1-one]"
86,42,"Cc1cc2c(cc1Cc1ccc(-c3ccn(C)n3)cc1)C(=O)N([C@H]1CCC[C@@H]1O)C2 (racemic) [Example 51, rac-2-(trans-2-hydroxycyclopentyl)-5-methyl-6-(4-(1-methyl-1H-pyrazol-3-yl)benzyl)isoindolin-1-one]"
103,28,"Cc1cc2c(cc1Cc1ccc(-c3cn(C)nn3)cc1F)C(=O)N([C@H]1CCC[C@@H]1O)C2 (racemic) [Example 53, rac-6-(2-fluoro-4-(1-methyl-1H-1,2,3-triazol-4-yl)benzyl)-2-(trans-2-hydroxycyclopentyl)-5-methylisoindolin-1-one]"
101,98,"Cc1cc2c(cc1Cc1ccc(-c3cn(C)nc3C)cc1)C(=O)N([C@H]1CCC[C@@H]1O)C2 (racemic) [Example 55, rac-6-(4-(1,3-dimethyl-1H-pyrazol-4-yl)benzyl)-2-(trans-2-hydroxycyclopentyl)-5-methylisoindolin-1-one]"

# Continued, compound first:
Compound,activity (%) at 10 μM [%],EC50 [nM]
"COc1cc2c(cc1Cc1ccc(-n3cccn3)cc1)C(=O)N([C@H]1CCCC[C@@H]1O)C2 (racemic) [Example 3, rac-2-(trans-2-hydroxycyclohexyl)-5-methoxy-6-(4-(1H-pyrazol-1-yl)benzyl)isoindolin-1-one]",106,15
"O=C1c2cc(Cc3ccc(-n4cccn4)cc3)c(C3CC3)cc2CN1[C@H]1CCC[C@@H]1O (racemic) [Example 9, rac-5-cyclopropyl-2-(trans-2-hydroxycyclopentyl)-6-(4-(1H-pyrazol-1-yl)benzyl)isoindolin-1-one]",102,43
"Cc1c(C#N)c(Cc2ccc(-n3cccn3)cc2)cc2c1CN([C@H]1CCCC[C@@H]1O)C2=O (racemic) [Example 11, rac-2-(trans-2-hydroxycyclohexyl)-4-methyl-1-oxo-6-(4-(1H-pyrazol-1-yl)benzyl)isoindoline-5-carbonitrile]",105,13
"COc1c(Cc2ccc(-n3cccn3)cc2)cc2c(c1Cl)CN([C@H]1CCCC[C@@H]1O)C2=O (racemic) [Example 12, rac-4-chloro-2-(trans-2-hydroxycyclohexyl)-5-methoxy-6-(4-(1H-pyrazol-1-yl)benzyl)isoindolin-1-one]",91,7.7
"Cc1c(Cc2ccc(-c3cnn(C)c3)nc2)cc2c(c1C)CN([C@H]1CCCC[C@@H]1O)C2=O (racemic) [Example 28, rac-2-(trans-2-hydroxycyclohexyl)-4,5-dimethyl-6-((6-(1-methyl-1H-pyrazol-4-yl)pyridin-3-yl)methyl)isoindolin-1-one]",106,4.8
"Cc1cc2c(cc1Cc1ccc(-n3cccn3)cc1)C(=O)N([C@H]1CCCC[C@@H]1O)C2 (racemic) [Example 32, rac-2-(trans-2-hydroxycyclohexyl)-5-methyl-6-(4-(1H-pyrazol-1-yl)benzyl)isoindolin-1-one]",99,5.6
"Cc1c(Cc2ccc(-n3cccn3)cc2)cc2c(c1C)CN([C@H]1CCC[C@@H]1O)C2=O (racemic) [Example 34, rac-2-(trans-2-hydroxycyclopentyl)-4,5-dimethyl-6-(4-(1H-pyrazol-1-yl)benzyl)isoindolin-1-one]",108,18
"Cc1c(Cc2ccc(-n3cccn3)cc2)cc2c(c1C)CN([C@H]1COCC[C@@H]1O)C2=O (racemic) [Example 35, rac-2-(trans-4-hydroxytetrahydro-2H-pyran-3-yl)-4,5-dimethyl-6-(4-(1H-pyrazol-1-yl)benzyl)-2,3-dihydro-1H-isoindol-1-one]",103,3.9
"Cc1cc2c(cc1Cc1ccc(-c3cn(C)nc3C)nc1)C(=O)N([C@H]1CCC[C@@H]1O)C2 (racemic) [Example 40, rac-6-((6-(1,3-dimethyl-1H-pyrazol-4-yl)pyridin-3-yl)methyl)-2-(trans-2-hydroxycyclopentyl)-5-methylisoindolin-1-one]",97,37
"Cc1cc2c(cc1Cc1ccc(-c3ccn(C)n3)nc1)C(=O)N([C@H]1CCCC[C@@H]1O)C2 (racemic) [Example 42, rac-2-(trans-2-hydroxycyclohexyl)-5-methyl-6-((6-(1-methyl-1H-pyrazol-3-yl)pyridin-3-yl)methyl)isoindolin-1-one]",115,9.2
"Cc1cc2c(cc1Cc1ccc(-c3cn(C)nn3)cc1)C(=O)N([C@H]1CCC[C@@H]1O)C2 (racemic) [Example 48, rac-2-(trans-2-hydroxycyclopentyl)-5-methyl-6-(4-(1-methyl-1H-1,2,3-triazol-4-yl)benzyl)isoindolin-1-one]",102,31
